Experimental data taken from patent US20170137824A1, “NEW TREATMENT AGAINST INFLUENZA VIRUS” (priority 2014, published 2017).
Residues, ends and D or L forms follow the SMILES beside them. *: point of attachment. Cbz = O=C(OCc1ccccc1)*

Columns and labels:
X31 strain of IAV [1] = test: Uncoating after endocytosis and fusion at LEs (ammonium chloride block and washout, drugs added 60 min post-uptake); assay type: cell-based, Influenza A X31 virus strain (H3N2); details: drug added 60 min post-uptake, kept during 60 min uncoating
X31 strain of IAV [2] = test: Acid-bypass uncoating assay (fusion at the plasma membrane); assay type: cell-based, Influenza A X31 virus strain (H3N2); details: for block of uncoating by type II myosin inhibitors: after acid-bypass at the PM (context); for uncoating blocked/decreased by % following PM bypass: percent reduction of uncoating

## CC(C)C[C@@H](C=O)NC(=O)[C@H](CC(C)C)NC(=O)[C@H](CC(C)C)NC(=O)OCc1ccccc1 [MG132] (Cbz-Leu-Leu-Leu-aldehyde)
X31 strain of IAV [1]
  effect on uncoating when IAV fuses at the LEs: no significant effect

## O=S(=O)(c1cccc2c(Cl)cccc12)N1CCCNCC1 [ML-9]
X31 strain of IAV [2]
  block of uncoating by type II myosin inhibitors: more than half

## Cc1ccc2c(c1)C(=O)C1(O)CCN(c3ccccc3)C1=N2 (stereo not drawn) [blebbistatin]
X31 strain of IAV [2]
  block of uncoating by type II myosin inhibitors: more than half

## N#CC(=C(O)c1ccc(Cl)cc1Cl)c1nc2cc(Cl)ccc2c(=O)[nH]1 [ciliobrevin D]
X31 strain of IAV [2]; remaining uncoating relative to control, siRNA experiments in A549 cells
  uncoating following acid-bypass at the PM, reduced to % of control: 62%

## C=C1[C@@H](C)[C@H]2[C@H](Cc3ccccc3)NC(=O)[C@]23[C@H](OC(C)=O)/C=C/[C@@](C)(O)C(=O)[C@@H](C)C/C=C/[C@H]3[C@@H]1O [cytochalasin D]
X31 strain of IAV [2]
  uncoating blocked/decreased by % following PM bypass: 83%

## CC(Nc1nc(N2CCCC2)nc2ccccc12)c1ccccc1 (stereo not drawn) [importazole]
X31 strain of IAV [1]
  effect on uncoating when IAV fuses at the LEs: no significant effect

## COC(=O)Nc1nc2ccc(C(=O)c3cccs3)cc2[nH]1 [nocodazole]
X31 strain of IAV [2]
  uncoating blocked/decreased by % following PM bypass: 35%

B1: HDAC6 (Dbm), mouse HDAC6 without the dynein-binding domain (del437-481), expressed in rescued HDAC6 KO MEFs (protein)
chain: MTSTGQDSSTRQRKSRHNPQSPLQESSATLKRGGKKCAVPHSSPNLAEVKKKGKMKKLSQPAEEDLVVGLQGLDLNPETRVPVGTGLVFDEQLNDFHCLWDDSFPESPERLHAIREQLILEGLLGRCVSFQARFAEKEELMLVHSLEYIDLMETTQYMNEGELRVLAETYDSVYLHPNSYSCACLATGSVLRLVDALMGAEIRNGMAVIRPPGHHAQHNLMDGYCMFNHLAVAARYAQKKHRIQRVLIVDWDVHHGQGTQFIFDQDPSVLYFSIHRYEHGRFWPHLKASNWSTIGFGQGQGYTINVPWNQTGMRDADYIAAFLHILLPVASEFQPQLVLVAAGFDALHGDPKGEMAATPAGFAHLTHLLMGLAGGKLILSLEGGYNLRALAKGVSASLHTLLGDPCPMLESCVVPCASAQTSIYCTLEALEPFWEVLVYDEKMMSHCNLWDNHHPETPQRILRIMCHLEEVGLAARCLILPARPALDSELLTCHSAEYVEHLRTTEKMKTRDLHREGANFDSIYICPSTFACAKLATGAACRLVEAVLSGEVLNGIAVVRPPGHHAEPNAACGFCFFNSVAVAARHAQIIAGRALRILIVDWDVHHGNGTQHIFEDDPSVLYVSLHRYDRGTFFPMGDEGASSQVGRDAGIGFTVNVPWNGPRMGDADYLAAWHRLVLPIAYEFNPELVLISAGFDAAQGDPLGGCQVTPEGYAHLTHLLMGLAGGRIILILEGGYNLASISESMAACTHSLLGDPPPQLTLLRPPQSGALVSISEVIQVHRKYWRSLRLMKMEDKEECSSSRLVIKKLPPTASPVSAKEMTTPKGKVPEESVRKTIAALPGKESTLGQAKSKMAKAVLAQGQSSEQAAKGTTLDLATSKETVGGATTDLWASAAAPENFPNQTTSVEALGETEPTPPASHTNKQTTGASPLQGVTAQQSLQLGVLSTLELSREAEEAHDSEEGLLGEAAGGQDMNSLMLTQGFGDFNTQDVFYAVTPLSWCPHLMAVCPIPAAGLDVSQPCKTCGTVQENWVCLTCYQVYCSRYVNAHMVCHHEASEHPLVLSCVDLSTWCYVCQAYVHHEDLQDVKNAAHQNKFGEDMPHSH
dynein
  uncoating using PM bypass, relative to WT MEFs: uncoating in the HDAC6 (Db^m) cells was reduced to 58%% of WT MEFs
  uncoating when the virus was allowed to fuse at LEs, compared to WT MEFs: uncoating was reduced to 67% in HDAC6 (Db^m) cells compared to WT MEFs
